Source: US10738127B2, “Monoclonal antibodies prevent cell surface protein shedding and block tumor growth” (VERITAS BIOTECNOLOGIA LTDA, priority 2016, dated 2020)

Legend:
[1] = tested on: E-cadherin linker segment; test: Titration of immunized mice sera against the E-cadherin linker segment peptides (FIG. 6); format: binding; details: immunization of mice
Source text: Polyclonal antibodies against synthetic peptides pep_VLS02 (RKAQPVEAGLQIPAC; SEQ ID NO: 4) and pep_VLS03 (VEAGLQIPAC; SEQ ID NO: 3) were produced according to methods known in the art.

MMP-9 = MMP-9 (Homo sapiens, UniProt P14780); test: MMP-9 enzymatic activity / E-cadherin cleavage assay; format: biochemical
Chain of MMP-9 (P14780 94-707, species assumed): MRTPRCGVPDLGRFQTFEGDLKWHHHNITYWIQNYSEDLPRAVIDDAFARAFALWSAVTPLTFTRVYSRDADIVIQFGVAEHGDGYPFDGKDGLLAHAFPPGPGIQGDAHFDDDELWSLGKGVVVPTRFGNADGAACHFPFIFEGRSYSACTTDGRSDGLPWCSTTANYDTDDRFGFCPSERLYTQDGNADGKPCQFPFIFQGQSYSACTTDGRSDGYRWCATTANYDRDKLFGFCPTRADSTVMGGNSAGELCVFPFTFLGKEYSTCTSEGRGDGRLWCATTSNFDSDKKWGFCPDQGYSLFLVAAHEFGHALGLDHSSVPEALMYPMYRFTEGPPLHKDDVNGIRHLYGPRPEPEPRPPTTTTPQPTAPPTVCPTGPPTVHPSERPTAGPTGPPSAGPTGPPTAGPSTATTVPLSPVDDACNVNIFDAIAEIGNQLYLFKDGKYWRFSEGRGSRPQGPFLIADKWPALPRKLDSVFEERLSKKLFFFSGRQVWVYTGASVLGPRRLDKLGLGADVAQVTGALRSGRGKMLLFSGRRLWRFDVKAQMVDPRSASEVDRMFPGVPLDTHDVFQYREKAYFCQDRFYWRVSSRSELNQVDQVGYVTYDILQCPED
Experimental: The synthetic peptide pep_VLS02 was used as a competitive inhibitor of MMP-9. The MMP-9 enzymatic activity is reduced in the presence of synthetic peptide (FIG. 10). The inhibitory effect of pep_VLS02 against cleavage of E-cadherin opens a new window for the development of new inhibitors.
On the other hand, when the polyclonal antibody pAb_VLS02 is added to the assay, in the presence of its corresponding peptide, the MMP-9 activity was reestablished (FIG. 10). Thus, pep_VLS02 and its correspondent polyclonal antibody modulate MMP-9 activity and inhibit the E-cadherin cleavage.

Sequence | immunogenic capacity [1] | E-cadherin cleavage by a metalloprotease (MMP-9; FIG. 10) | MMP-9 enzymatic activity (MMP-9; in the presence of synthetic peptide as competitive inhibitor)
VEAGLQIPAC [pep_VLS03, synthetic antigenic peptide of the E-cadherin linker segment plus a cysteine residue] | confirmed the immunogenic capacity | – | –
RKAQPVEAGLQIPAC [pep_VLS02, synthetic antigenic peptide covering the cleavage site of E-cadherin plus a cysteine residue at the end] | confirmed the immunogenic capacity | inhibit E-cadherin cleavage | reduced
